According to PubChem BioAssay AID2202554 (NIEHS Division of Translational Toxicology (DTT)):
Inconclusive results are not listed. The source made the active and inactive calls. How the calls were made is not given here.

What follows are compounds tested on S. typhimurium/E. coli reverse mutation, colony counts (assay: Bacterial reverse mutation test (aka Ames test) summary data;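 further: His-minus Salmonella and trp-minus E. coli WP2 uvrA pKM101 with or without liver S9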).
Excerpt: The Ames test uses bacteria cultures to determine whether a substance causes mutations. Because there is a significant overlap between substances that are mutagens and those that are carcinogens, a quick and inexpensive mutagenicity test is useful as an initial screening for possible carcinogens.
The Ames test relies on specific strains of S. typhimurium, namely: TA97, TA98, TA100, TA102, TA104, TA1535, TA1537, and TA1538. In addition to the S. typhimurium strains, the test may also use the E. coli strain WP2 uvrA pKM101.
Each of the bacterial strains has a mutation that prevents it from making an amino acid (a protein building block) required for normal cell growth. The S. typhimurium strains are unable to manufacture histidine; the E. coli strain cannot manufacture tryptophan. The tester strains will not be able to grow without amino acid supplementation, unless the mutated gene is changed back to the correct DNA sequence (reversion mutation). Being exposed to a mutagenic chemical increases the chance that the mutant gene will be restored to the correct sequence, which allows the bacteria to grow and form colonies. Each substance under study is tested in a variety of bacterial strains with different types of altered DNA sequences in order to provide a comprehensive assessment of the mutagenic potential of the substance.
Some non-mutagenic substances are converted to mutagenic substances when metabolized by the liver; in contrast, some substances that are mutagenic in their natural state are converted to non-mutagens by the liver. All substances are tested in their natural state, as well as in the presence of liver enzymes that can produce this metabolic conversion of the test substance. Extracts of rat, hamster, or mouse liver enzymes (S9 mix) are used for this purpose.
D. Preparing the Cultures
Multiple sets of cultures are prepared using a range of doses and different amounts of liver enzymes for each bacterial strain. Each culture is prepared in a test tube containing a suspension of one bacterial strain and either an S9 mix or plain buffer solution. Then the test substance is added. Negative control cultures are established using the same ingredients, but without the test substance. Positive control cultures are established using known mutagens active in particular bacterial strains and metabolic conditions (for example, with or without S9). Once prepared, each culture is incubated for 20 minutes at 37° C. Agar is then added to the cultures, and the contents of each tube are poured onto the surface of a Petri dish that was prepared with standard bacterial culture medium. The plates are then incubated, usually for two days.
Depending on the substance to be tested, the exposure and incubation processes may be modified. These variations include:
- Elimination of the 20-minute incubation period in a test tube prior to plating (this method is referred to as the standard plate incorporation method)
- Enzymatic reduction of azo and diazo substances (this process occurs in the intestine or liver of animals) using a chemical called flavin mononucleotide (FMN) or intestinal bacterial preparations from rats
- Testing in sealed chambers such as desiccators for volatile and gaseous chemicals.
To validate the test, a trained investigator compares the number of colonies on the chemical-treated plates to the number of colonies on the negative control plates. If the substance under test is mutagenic, the chemical-treated plates will have a much greater number of colonies than the negative control plates.
- A positive response is a reproducible, dose-related increase in mutant colonies in any single strain, with or without the addition of S9 metabolic enzymes. While there is no minimum percentage of increase required for a result to be considered positive, a twofold increase in mutant colonies in a treated plate is usually considered to be a positive (mutagenic) response.
[…]
In the case of C1CCC2OC2C1 (centres undefined), the outcome is reported as “active; positive”. CCOC(=O)CC(SP(=O)(OC)OC)C(=O)OCC (centres undefined) was tested, and the outcome was “inactive; negative”. In the case of CC(C)CCC(C)Nc1ccc(NC(C)CCC(C)C)cc1 (centres undefined), the outcome is reported as “inactive; negative”. With Cc1cccc2c1ccc1ccccc12 the outcome was “active; positive”. For CC(C)=O, the outcome was “inactive; negative”. O=C/C=C/c1ccccc1 was tested, and the outcome was “active; weakly positive”. With CC[C@H](C)COC(=O)C=Cc1ccc(N=Cc2ccc(OC)cc2)cc1 the outcome was “active; positive”. CC=CC=CC=O was tested, and the outcome was “active; positive”. With O=C(CO)CO the outcome was “active; positive”. For Oc1ccc(C(c2ccc(O)cc2)(C(F)(F)F)C(F)(F)F)cc1, the outcome was “inactive; negative”. COCC1CCC(CO)CC1 (centres undefined) was tested, and the outcome was “inactive; negative”. With CC(O)CCl (centres undefined) the outcome was “active; positive”. For CCCCCCCCCCCCCCCCCCCC, the outcome was “inactive; negative”. In the case of N[C@H](Cc1ccccc1)C(=O)O, the outcome is reported as “inactive; negative”. In the case of O=S(=O)(O)c1ccc(N=Nc2cc(S(=O)(=O)O)c3ccccc3c2O)c2ccccc12, the outcome is reported as “inactive; negative”. For ClCc1cccnc1, the outcome was “active; positive”. Oc1c(Br)c(Br)c(Br)c(Br)c1Br was tested, and the outcome was “inactive; negative”. For Nc1ccccc1N, the outcome was “active; positive”. In the case of C[N+](C)(C)CCCl, the outcome is reported as “inactive; negative”. In the case of CCCC=C(C=O)CC, the outcome is reported as “inactive; negative”. CCCN(CCC)S(=O)(=O)c1ccc(C(=O)O)cc1 was tested, and the outcome was “inactive; negative”. In the case of CC(C)OCC1CO1 (centres undefined), the outcome is reported as “active; positive”. With O=Cc1ccccc1C=O the outcome was “active; positive”. For C=C(C)C(=O)NCCCN(C)C, the outcome was “inactive; negative”. In the case of C=CC(=C)C, the outcome is reported as “inactive; negative”. With C=CC(=O)OCC(C)C the outcome was “inactive; negative”. O=C1N(CO)C(O)C(O)N1CO (centres undefined) was tested, and the outcome was “active; positive”. In the case of C=CCOC(=O)C=C, the outcome is reported as “inactive; negative”. With CN(C)CCCN the outcome was “inactive; negative”. For CCCC(CCC)C(=O)O, the outcome was “inactive; negative”. For Oc1cc(Cl)c(Cl)c(Cl)c1Cl, the outcome was “inactive; negative”. For CCC=CC#N, the outcome was “inactive; negative”. With CC12CCC(C1)C(C)(C)C2=O (centres undefined) the outcome was “inactive; negative”. With CCCCCCCCS(=O)C(C)Cc1ccc2c(c1)OCO2 (centres undefined) the outcome was “inactive; negative”. For CCNc1ccc([N+](=O)[O-])cc1C, the outcome was “active; positive”. CC[N+](=O)[O-] was tested, and the outcome was “inactive; negative”. In the case of C1CN(CCOCCN2CCOCC2)CCO1, the outcome is reported as “inactive; negative”. With CC1CC(OC(=O)c2ccccc2O)CC(C)(C)C1 (centres undefined) the outcome was “inactive; negative”. In the case of NC(=S)Nc1ccccc1, the outcome is reported as “inactive; negative”. In the case of CCC(Cl)[N+](=O)[O-] (centres undefined), the outcome is reported as “active; positive”. With NC(=O)CC(N)=O the outcome was “inactive; negative”. With CCc1cccc(C)c1N the outcome was “inactive; negative”. ClC(Cl)c1ccccc1 was tested, and the outcome was “active; positive”. CBr was tested, and the outcome was “active; positive”. For CCC(O)CN (centres undefined), the outcome was “inactive; negative”. With CCCCCc1cc(O)cc(O)c1 the outcome was “inactive; negative”. Cc1cc(-c2ccc(N=Nc3cc(S(=O)(=O)O)c4ccccc4c3N)c(C)c2)ccc1N=Nc1cc(S(=O)(=O)O)c2ccccc2c1N was tested, and the outcome was “inactive; negative”. For O=[N+]([O-])c1ccc(Nc2ccc(Nc3ccccc3)c(S(=O)(=O)O)c2)c([N+](=O)[O-])c1, the outcome was “active; positive”. NC(=O)c1cccc([N+](=O)[O-])c1 was tested, and the outcome was “active; positive”. With COc1cc(-c2ccc(N=Nc3cc(S(=O)(=O)O)c4ccccc4c3O)c(OC)c2)ccc1N=Nc1cc(S(=O)(=O)O)c2ccccc2c1O the outcome was “inactive; negative”. C=CCCC was tested, and the outcome was “inactive; negative”. CCCCCCCCC(=O)O was tested, and the outcome was “inactive; negative”. In the case of O.O=C([O-])c1ccccn1.O=C([O-])c1ccccn1.O=C([O-])c1ccccn1.[Cr+3], the outcome is reported as “inactive; negative”. With CCCC=O the outcome was “inactive; negative”.
